The values that follow come from EP3697386B1, “LIQUID COMPOSITIONS FOR PERORAL USE COMPRISING PHOSPHATIDYLGLYCEROL DERIVATIVES AND T[…] TREATING CARDIAC CHANN[…] BY PHARMACOLOGICAL AGENTS” (Signpath Pharma, Inc., priority 2017, dated 2019).

The data set concerns the target hERG (Homo sapiens, UniProt Q12809). The data set is described as follows: Whole-cell patch-clamp of IKr hERG tail current: protective effect of lipids against hERG inhibition by Nilotinib. The conditions noted are these: for activity at 5 min: human, herg hek293 cells.

Sequence of hERG (Q12809 whole entry): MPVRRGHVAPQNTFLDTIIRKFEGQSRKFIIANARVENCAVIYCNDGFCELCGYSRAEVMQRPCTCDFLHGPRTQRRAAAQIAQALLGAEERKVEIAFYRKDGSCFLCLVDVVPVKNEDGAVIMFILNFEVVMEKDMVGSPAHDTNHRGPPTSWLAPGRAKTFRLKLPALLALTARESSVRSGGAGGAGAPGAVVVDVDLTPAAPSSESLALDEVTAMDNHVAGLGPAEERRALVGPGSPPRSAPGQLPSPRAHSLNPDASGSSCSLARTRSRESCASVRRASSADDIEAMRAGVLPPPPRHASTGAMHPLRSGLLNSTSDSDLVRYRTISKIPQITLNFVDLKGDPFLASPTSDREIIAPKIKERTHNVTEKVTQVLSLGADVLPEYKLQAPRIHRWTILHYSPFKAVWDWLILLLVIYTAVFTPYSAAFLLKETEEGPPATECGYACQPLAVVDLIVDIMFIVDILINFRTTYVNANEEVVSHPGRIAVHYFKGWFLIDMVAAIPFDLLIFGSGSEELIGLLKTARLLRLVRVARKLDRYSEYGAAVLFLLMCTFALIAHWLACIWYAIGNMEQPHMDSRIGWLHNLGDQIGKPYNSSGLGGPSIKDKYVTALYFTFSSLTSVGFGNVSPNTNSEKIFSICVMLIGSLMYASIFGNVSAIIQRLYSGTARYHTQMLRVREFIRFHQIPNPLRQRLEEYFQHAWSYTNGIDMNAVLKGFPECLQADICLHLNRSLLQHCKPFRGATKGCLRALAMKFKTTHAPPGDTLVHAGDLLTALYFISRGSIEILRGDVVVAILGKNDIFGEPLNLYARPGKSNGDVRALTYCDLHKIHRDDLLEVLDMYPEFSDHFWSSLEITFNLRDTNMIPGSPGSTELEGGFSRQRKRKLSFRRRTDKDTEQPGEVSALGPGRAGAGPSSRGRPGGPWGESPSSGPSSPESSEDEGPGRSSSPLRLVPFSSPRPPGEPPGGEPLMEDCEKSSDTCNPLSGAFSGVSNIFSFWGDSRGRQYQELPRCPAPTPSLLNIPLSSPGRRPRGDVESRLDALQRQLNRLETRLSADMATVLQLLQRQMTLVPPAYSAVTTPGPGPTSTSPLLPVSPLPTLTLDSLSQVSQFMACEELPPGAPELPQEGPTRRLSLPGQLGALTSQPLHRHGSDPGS

For the compound “12-Mysteroyl-2-Hydroxy-sn-Glycero-3-[Phospho-rac-(glycerol)] [DMPG]”, the “Normalized Current Density” value (lipid alone in aqueous solution, 5 minutes exposure, hERG-transfected HEK 293 cells, tail current at -55 mV, baseline = 1.000) is on record as 0.800.

`CCCCCCCCCCCCCC(=O)OC[C@H](COP(=O)([O-])OCC[N+](C)(C)C)OC(=O)CCCCCCCCCCCCC` [DMPC, 1,2-dimyristoyl-sn-glycero-3-phosphocholine]: the activity at 5 min stood at 106%. For the same compound, under “Normalized Current Density, lipid alone in aqueous solution, 5 minutes exposure, hERG-transfected HEK 293 cells, tail current at -55 mV, baseline = 1.000”, the activity at 5 min was 86.3%.
